Test system: tobacco budworm (Heliothis virescens [Fabricius])
Assay: surface-treated diet test, insecticidal activity against tobacco budworm
Format: in vivo
Conditions: 0.25 millimoles of candidate insecticide on the surface of the diet, second instar larvae, five-day exposure; for Percent Mortality: compared to total number of insects infested; for Percent Growth Inhibition: inhibition of insect weight relative to untreated controls
Outline: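 Wheat germ artificial diet surface-treated with compound from 50 mM DMSO stock diluted 1:7 in 1:1 water/acetone (0.25 millimolar on diet), or lower-rate dilutions; DMSO-only controls. One second-instar larva per well, 25° C, 60% RH, 14 h light, five days; percent weight inhibition versus untreated and percent mortality scored.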

Row | SMILES | Percent Mortality [%] | Percent Growth Inhibition [%]
1 | O=S(=O)([O-])CCCO.OC1(C(c2ccc(OC(F)(F)F)cc2)c2ccc(OC(F)(F)F)cc2)CC[N+](O)(Cc2ccc(Oc3ccccn3)cc2)CC1 (centres unmarked) [Compound 500] | 100 | 100
2 | CON=C(Cl)c1ccc(C[N+]2(O)CCC(O)(C(c3ccc(OC(F)(F)F)cc3)c3ccc(OC(F)(F)F)cc3)CC2)cc1.O=C(O)CC(O)(CC(=O)O)C(=O)[O-] (centres unmarked) [Compound 501] | 100 | 100
3 | O=C([O-])C1CCCCC1.OC1(C(c2ccc(OC(F)(F)F)cc2)c2ccc(OC(F)(F)F)cc2)CC[N+](O)(Cc2ccc(Oc3ccccn3)cc2)CC1 (centres unmarked) [Compound 502] | 100 | 100
4 | CCOC(C)C(=O)[O-].OC1(C(c2ccc(OC(F)(F)F)cc2)c2ccc(OC(F)(F)F)cc2)CC[N+](O)(Cc2ccc(Oc3ccccn3)cc2)CC1 (centres unmarked) [Compound 503] | 100 | 100
5 | O=C(O)CC(O)(CC(=O)O)C(=O)[O-].OC1(C(c2ccc(OC(F)(F)F)cc2)c2ccc(OC(F)(F)F)cc2)CC[N+](O)(Cc2ccc(Oc3ccccn3)cc2)CC1 (centres unmarked) [Compound 504] | 100 | 100
6 | CC1(C)[C@@H]2CCC1(CS(=O)(=O)[O-])C(=O)C2.OC1(C(c2ccc(OC(F)(F)F)cc2)c2ccc(OC(F)(F)F)cc2)CC[N+](O)(Cc2ccc(Oc3ccccn3)cc2)CC1 (centres unmarked) [Compound 505] | 100 | 100
7 | CCS(=O)(=O)[O-].OC1(C(c2ccc(OC(F)(F)F)cc2)c2ccc(OC(F)(F)F)cc2)CC[N+](O)(Cc2ccc(Oc3ccccn3)cc2)CC1 (centres unmarked) [Compound 506] | 100 | 100
8 | CC1(C)[C@@H]2CCC1(CS(=O)(=O)[O-])C(=O)C2.CCON=Cc1ccc(C[N+]2(O)CCC(O)(C(c3ccc(OC(F)(F)F)cc3)c3ccc(OC(F)(F)F)cc3)CC2)cc1 (centres unmarked) [Compound 507] | 100 | 100
9 | O=S(=O)([O-])C(F)(F)C(F)(F)C(F)(F)C(F)(F)F.OC1(C(c2ccc(OC(F)(F)F)cc2)c2ccc(OC(F)(F)F)cc2)CC[N+](O)(Cc2ccc(Oc3ccccn3)cc2)CC1 (centres unmarked) [Compound 508] | 100 | 100
10 | CC(C)=CCCC(C)CC(=O)[O-].OC1(C(c2ccc(OC(F)(F)F)cc2)c2ccc(OC(F)(F)F)cc2)CC[N+](O)(Cc2ccc(Oc3ccccn3)cc2)CC1 (centres unmarked) [Compound 509] | 100 | 100
11 | O=C([O-])CO.OC1(C(c2ccc(OC(F)(F)F)cc2)c2ccc(OC(F)(F)F)cc2)CC[N+](O)(Cc2ccc(Oc3ccccn3)cc2)CC1 (centres unmarked) [Compound 510] | 100 | 100
12 | O=C([O-])C12CC3CC(CC(C3)C1)C2.OC1(C(c2ccc(OC(F)(F)F)cc2)c2ccc(OC(F)(F)F)cc2)CC[N+](O)(Cc2ccc(Oc3ccccn3)cc2)CC1 (centres unmarked) [Compound 511] | 100 | 100
13 | O=C([O-])CCCC(=O)O.OC1(C(c2ccc(OC(F)(F)F)cc2)c2ccc(OC(F)(F)F)cc2)CC[N+](O)(Cc2ccc(Oc3ccccn3)cc2)CC1 (centres unmarked) [Compound 512] | 100 | 100
14 | CCCCCCCC/C=C/CCCCCCCC(=O)[O-].OC1(C(c2ccc(OC(F)(F)F)cc2)c2ccc(OC(F)(F)F)cc2)CC[N+](O)(Cc2ccc(Oc3ccccn3)cc2)CC1 (centres unmarked) [Compound 513] | 100 | 100
15 | O=C([O-])CCCCCC(=O)O.OC1(C(c2ccc(OC(F)(F)F)cc2)c2ccc(OC(F)(F)F)cc2)CC[N+](O)(Cc2ccc(Oc3ccccn3)cc2)CC1 (centres unmarked) [Compound 514] | 100 | 100
16 | CCCCCCCCCCCCc1ccc(S(=O)(=O)[O-])cc1.OC1(C(c2ccc(OC(F)(F)F)cc2)c2ccc(OC(F)(F)F)cc2)CC[N+](O)(Cc2ccc(Oc3ccccn3)cc2)CC1 (centres unmarked) [Compound 515] | 100 | 100
17 | O=C([O-])CCCCC(=O)O.OC1(C(c2ccc(OC(F)(F)F)cc2)c2ccc(OC(F)(F)F)cc2)CC[N+](O)(Cc2ccc(Oc3ccccn3)cc2)CC1 (centres unmarked) [Compound 516] | 100 | 100
18 | CCCCCCCC(=O)[O-].OC1(C(c2ccc(OC(F)(F)F)cc2)c2ccc(OC(F)(F)F)cc2)CC[N+](O)(Cc2ccc(Oc3ccccn3)cc2)CC1 (centres unmarked) [Compound 517] | 100 | 100
19 | CCS(=O)(=O)[O-].OC1(C(c2ccc(C(F)(F)F)cc2)c2ccc(C(F)(F)F)cc2)CC[N+](O)(Cc2ccc(Oc3ccc(Cl)nn3)cc2)CC1 (centres unmarked) [Compound 518] | 100 | 100
20 | O=S(=O)([O-])C(F)(F)C(F)(F)C(F)(F)C(F)(F)C(F)(F)C(F)(F)C(F)(F)C(F)(F)C(F)(F)F.OC1(C(c2ccc(C(F)(F)F)cc2)c2ccc(C(F)(F)F)cc2)CC[N+](O)(Cc2ccc(Oc3ccc(Cl)nn3)cc2)CC1 (centres unmarked) [Compound 520] | 100 | 100
21 | CC(C)OC(=O)Nc1ccc(C[N+]2(Cc3ccc(NC(=O)OC(C)C)cc3)CCC(O)(C(O)(c3ccc(OC(F)(F)F)cc3)c3ccc(OC(F)(F)F)cc3)CC2)cc1.[Cl-] [Compound 521] | 50 | 100
22 | Cl.OC1(C(c2ccc(OC(F)(F)F)cc2)c2ccc(OC(F)(F)F)cc2)CCN(Cc2ccc(Oc3ccccn3)cc2)CC1 [Compound 522] | 100 | 100
